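Values below derive from 48-hour exposures of cells grown in 96-well plates, with endpoints linearly interpolated between the two concentrations bracketing the appropriate inhibition level. GI50 marks 50% less growth.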 Active and inactive are the calls of the source. No stated cut-off is given here; in the data, active = GI50 up to about 1.1 µM and inactive = higher.
Legend:
Assay in all cases: DTP human tumour cell line panel, 48 h
HCC 2998 = test system: HCC 2998
CAKI-1 = test system: CAKI-1
SF-295 = test system: SF-295
A498 = test system: A498
Malme-3M = test system: Malme-3M
MDA-MB-231 = test system: MDA-MB-231
KM12 = test system: KM12
MOLT-4 = test system: MOLT-4
K562 = test system: K562
786-0 = test system: 786-0
TK-10 = test system: TK-10
SNB-19 = test system: SNB-19
RXF 393 = test system: RXF 393
HCT-116 = test system: HCT-116
NCI-H226 = test system: NCI-H226
COLO 205 = test system: COLO 205
SW-620 = test system: SW-620
U-251 = test system: U-251
NCI-H522 = test system: NCI-H522
OVCAR-8 = test system: OVCAR-8

Compound | GI50 (HCC 2998) | GI50 (CAKI-1) | GI50 (SF-295) | GI50 (A498) | GI50 (Malme-3M) | GI50 (MDA-MB-231) | GI50 (KM12) | GI50 (MOLT-4) | GI50 (K562) | GI50 (786-0) | GI50 (TK-10) | GI50 (SNB-19) | GI50 (RXF 393) | GI50 (HCT-116) | GI50 (NCI-H226) | GI50 (COLO 205) | GI50 (SW-620) | GI50 (U-251) | GI50 (NCI-H522) | GI50 (OVCAR-8)
CC1=CC(=O)c2cccc(NC3=NCCO3)c21 | 33.4 µM (inactive) | > 100 µM (inactive) | > 100 µM (inactive) | 38 µM (inactive) | 30.6 µM (inactive) | 32.4 µM (inactive) | 30.4 µM (inactive) | 32.7 µM (inactive) | 34.5 µM (inactive) | 86.5 µM (inactive) | > 100 µM (inactive) | > 100 µM (inactive) | 48.9 µM (inactive) | 33.6 µM (inactive) | 29 µM (inactive) | 41.1 µM (inactive) | > 100 µM (inactive) | 64 µM (inactive) | 69.8 µM (inactive) | –
CC[C@@]1(O)CC(OC2CC(N3CCOCC3)C(O)C(C)O2)c2c(O)c3c(c(O)c2[C@H]1O)C(=O)c1cccc(O)c1C3=O (stereo partly drawn) | 0.223 µM (active) | – | 0.0575 µM (active) | 0.191 µM (active) | 0.0502 µM (active) | 0.348 µM (active) | 0.182 µM (active) | – | 0.112 µM (active) | 0.0407 µM (active) | 0.452 µM (active) | 0.127 µM (active) | 0.196 µM (active) | 0.0519 µM (active) | 0.0893 µM (active) | 0.0847 µM (active) | 0.0469 µM (active) | 0.08 µM (active) | 0.166 µM (active) | 0.0904 µM (active)
CC1=NNC(=O)C1C1CC(c2c[nH]c3ccccc23)=NNC1=S (stereo not drawn) | – | > 100 µM (inactive) | > 100 µM (inactive) | > 100 µM (inactive) | > 100 µM (inactive) | > 100 µM (inactive) | 29.6 µM (inactive) | 37.2 µM (inactive) | 48.5 µM (inactive) | > 100 µM (inactive) | > 100 µM (inactive) | > 100 µM (inactive) | > 100 µM (inactive) | > 100 µM (inactive) | > 100 µM (inactive) | 72.1 µM (inactive) | > 100 µM (inactive) | > 100 µM (inactive) | > 100 µM (inactive) | > 100 µM (inactive)
C[C@]12CC[C@H]3[C@@H](CCC4=C(Br)C(=O)C=C[C@@]43O)[C@@H]1CCC2=O | – | 31.6 µM (inactive) | 74.1 µM (inactive) | 49.2 µM (inactive) | 93.5 µM (inactive) | 82 µM (inactive) | 34.2 µM (inactive) | 25.2 µM (inactive) | 32.7 µM (inactive) | 24.9 µM (inactive) | 36.6 µM (inactive) | 61 µM (inactive) | 21.1 µM (inactive) | 26.4 µM (inactive) | > 100 µM (inactive) | 61 µM (inactive) | 26.8 µM (inactive) | 52.6 µM (inactive) | 13 µM (inactive) | 25.8 µM (inactive)
CSc1nc2cc(S(=O)(=O)N3CCCCC3)ccc2s1 | – | > 100 µM (inactive) | 28 µM (inactive) | > 100 µM (inactive) | > 100 µM (inactive) | > 100 µM (inactive) | > 100 µM (inactive) | > 100 µM (inactive) | > 100 µM (inactive) | > 100 µM (inactive) | > 100 µM (inactive) | > 100 µM (inactive) | > 100 µM (inactive) | > 100 µM (inactive) | > 100 µM (inactive) | > 100 µM (inactive) | > 100 µM (inactive) | > 100 µM (inactive) | 79.1 µM (inactive) | > 100 µM (inactive)
OC(C#CCN1CCCC1)(c1ccccc1)c1ccccc1Cl (stereo not drawn) | 21.8 µM (inactive) | 24.8 µM (inactive) | 24.6 µM (inactive) | 17.1 µM (inactive) | > 10 µM (inactive) | 47.1 µM (inactive) | 27.5 µM (inactive) | 33.7 µM (inactive) | 30.8 µM (inactive) | > 10 µM (inactive) | 50.8 µM (inactive) | – | 46.8 µM (inactive) | 30.1 µM (inactive) | 80.7 µM (inactive) | 12.5 µM (inactive) | 18.5 µM (inactive) | 17.7 µM (inactive) | 22.6 µM (inactive) | 33.8 µM (inactive)
Cc1cc2c(cc1C)C(=O)C1(C2)Cc2c(C)ccc(C)c2C1=O (stereo not drawn) | > 100 µM (inactive) | > 100 µM (inactive) | > 100 µM (inactive) | – | 84.9 µM (inactive) | > 100 µM (inactive) | > 100 µM (inactive) | > 100 µM (inactive) | > 100 µM (inactive) | > 100 µM (inactive) | > 100 µM (inactive) | > 100 µM (inactive) | 84.7 µM (inactive) | > 100 µM (inactive) | > 100 µM (inactive) | > 100 µM (inactive) | > 100 µM (inactive) | > 100 µM (inactive) | > 100 µM (inactive) | > 100 µM (inactive)
COC(=O)c1c2c(cc3c1CC1(Cc4cc5c(c(C(C)=O)c4C1)CCCC5)C3)CCCC2 (stereo not drawn) | > 100 µM (inactive) | – | > 100 µM (inactive) | > 100 µM (inactive) | > 100 µM (inactive) | > 100 µM (inactive) | > 100 µM (inactive) | – | 23.4 µM (inactive) | > 100 µM (inactive) | > 100 µM (inactive) | – | > 100 µM (inactive) | 60 µM (inactive) | > 100 µM (inactive) | > 100 µM (inactive) | – | > 100 µM (inactive) | > 100 µM (inactive) | > 100 µM (inactive)
Clc1ccccc1C(Nc1ncccn1)Nc1ncccn1 | > 100 µM (inactive) | > 100 µM (inactive) | > 100 µM (inactive) | > 100 µM (inactive) | – | > 100 µM (inactive) | > 100 µM (inactive) | > 100 µM (inactive) | > 100 µM (inactive) | > 100 µM (inactive) | > 100 µM (inactive) | > 100 µM (inactive) | > 100 µM (inactive) | > 100 µM (inactive) | > 100 µM (inactive) | > 100 µM (inactive) | > 100 µM (inactive) | > 100 µM (inactive) | > 100 µM (inactive) | > 100 µM (inactive)
Cc1ccc(/C(=C\C(=O)C(=O)NC23CC4CC(CC(C4)C2)C3)Sc2ccccc2)cc1 | > 10 µM (inactive) | > 10 µM (inactive) | > 10 µM (inactive) | > 10 µM (inactive) | > 10 µM (inactive) | > 10 µM (inactive) | > 10 µM (inactive) | 4.63 µM (inactive) | 4.76 µM (inactive) | > 10 µM (inactive) | > 10 µM (inactive) | – | > 10 µM (inactive) | – | > 10 µM (inactive) | 3.5 µM (inactive) | > 10 µM (inactive) | > 10 µM (inactive) | > 10 µM (inactive) | > 10 µM (inactive)
COC(=O)c1c2c(cc3c1CC1(Cc4cc5c(c(C=O)c4C1)CCC5)C3)CCC2 (stereo not drawn) | 24.7 µM (inactive) | > 100 µM (inactive) | 41.4 µM (inactive) | 33.6 µM (inactive) | 22.9 µM (inactive) | 28.4 µM (inactive) | – | 17 µM (inactive) | 13.4 µM (inactive) | 29.4 µM (inactive) | 98.4 µM (inactive) | 44.7 µM (inactive) | 30.7 µM (inactive) | 21.2 µM (inactive) | – | – | 53.2 µM (inactive) | 19.8 µM (inactive) | 17.3 µM (inactive) | 42.8 µM (inactive)
S=C(Nc1ccc2cn[nH]c2c1)Nc1ccc2cn[nH]c2c1 | 60.8 µM (inactive) | > 100 µM (inactive) | 87.3 µM (inactive) | 46 µM (inactive) | > 100 µM (inactive) | > 100 µM (inactive) | 53.7 µM (inactive) | – | 61.7 µM (inactive) | 98.2 µM (inactive) | 48.1 µM (inactive) | > 100 µM (inactive) | > 100 µM (inactive) | 58.5 µM (inactive) | 44.1 µM (inactive) | 44.8 µM (inactive) | > 100 µM (inactive) | 57.4 µM (inactive) | 34.1 µM (inactive) | 72.3 µM (inactive)
COc1cccc2c(NNc3ccc(Cl)cc3)c3ccc([N+](=O)[O-])cc3nc12 | 13.8 µM (inactive) | 2.28 µM (inactive) | 16.2 µM (inactive) | 12.9 µM (inactive) | 10.3 µM (inactive) | 12.7 µM (inactive) | 18.7 µM (inactive) | 1.92 µM (inactive) | 11.7 µM (inactive) | 8.97 µM (inactive) | 10.3 µM (inactive) | 14.8 µM (inactive) | 14.7 µM (inactive) | 7.28 µM (inactive) | 13.9 µM (inactive) | 21.6 µM (inactive) | 13.8 µM (inactive) | 11.7 µM (inactive) | 6.07 µM (inactive) | –
C[N+]12C=CC=C1C(N1CCCC1)c1sc(-c3ccc(Cl)cc3)cc12 (stereo not drawn) | 15.7 µM (inactive) | > 100 µM (inactive) | 20.3 µM (inactive) | 18.8 µM (inactive) | 15.6 µM (inactive) | 18.3 µM (inactive) | 17 µM (inactive) | 16.9 µM (inactive) | – | 15.4 µM (inactive) | 19.6 µM (inactive) | 13.6 µM (inactive) | 17.9 µM (inactive) | 16.1 µM (inactive) | 17 µM (inactive) | 16.9 µM (inactive) | 15.9 µM (inactive) | 12.1 µM (inactive) | 10.4 µM (inactive) | 16.9 µM (inactive)
COc1cccc(C2c3cc4c(cc3OC(N3CCCCC3)C2C)OCO4)c1O (stereo not drawn) | 10.5 µM (inactive) | 5.48 µM (inactive) | 4.26 µM (inactive) | – | 4.53 µM (inactive) | 11.2 µM (inactive) | 4.47 µM (inactive) | 3.96 µM (inactive) | 2.23 µM (inactive) | 4.72 µM (inactive) | 13.8 µM (inactive) | 7.93 µM (inactive) | 3.25 µM (inactive) | 4.89 µM (inactive) | 6.55 µM (inactive) | 4.89 µM (inactive) | 3.97 µM (inactive) | 3.82 µM (inactive) | 2.74 µM (inactive) | 5.9 µM (inactive)

Source: ChEMBL document CHEMBL1201862, “PubChem BioAssay data set” (2004)
